Patent US9296741B2, “Bromodomain inhibitors” (priority 2012, dated 2016)

Legend:
[1] = biological target: human BRD4 first bromodomain (BDI_K57-E168) (Homo sapiens (Human), UniProt O60885); assay: TR-FRET bromodomain binding assay, BRD4 first bromodomain
[2] = system: breast cancer cell line MX-1; assay: MX-1 cell line proliferation assay; type: cell-based, human; conditions: Homo sapiens, MX1, 72 h; MX-1 cells, 3-day proliferation, Cell Titer Glo; read-out: Cellular proliferation: EC50
[3] = Rat liver microsome stability assay; type: in vitro ADME; conditions: rat liver microsomes (male Sprague-Dawley), 0.5 μM test compound, pH 7.4, 37° C.; for half-life at 0.5 μM: 0.25 mg/mL microsomal protein, read-out: Stability in rat liver microsomes (t1/2 in minutes)
[4] = Human liver microsome stability assay; type: in vitro ADME; conditions: both sexes, human, microsomes, pH 7.4
[5] = Mouse liver microsome stability assay; type: in vitro ADME; conditions: male, CD1, mouse, microsomes, pH 7.4
[6] = biological target: human BRD4 second bromodomain (BDII_E352-M457) (Homo sapiens (Human), UniProt O60885); assay: TR-FRET bromodomain binding assay, BRD4 second bromodomain

| Ki [1] | EC50 [2] | half-life at 0.5 μM [3] | half-life at 0.5 μM [4] | half-life at 0.5 μM [5] | Ki [6] | Stability in rat liver microsomes (t1/2 in minutes) ([3]; […] microsomal protein) | SMILES |
| --- | --- | --- | --- | --- | --- | --- | --- |
| 3.3 nM | 34.2 nM | 101 min | 70 min | 68 min | 8.1 nM |  | Cn1cc(-c2cc(S(C)(=O)=O)ccc2OCC2CCOC2)c2cc[nH]c2c1=O (stereo not drawn) [Example 217, 6-methyl-4-[5-(methylsulfonyl)-2-(tetrahydrofuran-3-ylmethoxy)phenyl]-1,6-dihydro-7H-pyrrolo[2,3-c]pyridin-7-one] |
| 11.3 nM | 53.5 nM | 6 min | 16 min | 18 min | 4.4 nM |  | Cc1ccc(Oc2ccc(S(C)(=O)=O)cc2-c2cn(C)c(=O)c3[nH]ccc23)cc1 [Example 177, 6-methyl-4-[2-(4-methylphenoxy)-5-(methylsulfonyl)phenyl]-1,6-dihydro-7H-pyrrolo[2,3-c]pyridin-7-one] |
| 8.7 nM | 56 nM | 7 min | > 120 min | 36 min | 1.1 nM |  | Cn1cc(-c2cc(S(N)(=O)=O)ccc2Oc2ccccc2)c2cc[nH]c2c1=O [Example 95, 3-(6-methyl-7-oxo-6,7-dihydro-1H-pyrrolo[2,3-c]pyridin-4-yl)-4-phenoxybenzenesulfonamide] |
| 11.5 nM | 249 nM | 20 min | > 120 min | 109 min | 38.2 nM |  | Cn1cc(-c2cc(S(=O)(=O)C(F)(F)F)ccc2OCC2CC2)c2cc[nH]c2c1=O [Example 243, 4-{2-(cyclopropylmethoxy)-5-[(trifluoromethyl)sulfonyl]phenyl}-6-methyl-1,6-dihydro-7H-pyrrolo[2,3-c]pyridin-7-one] |
| 2.8 nM | 21.3 nM | 5 min | 5 min | 4 min | 1.2 nM |  | Cn1cc(-c2cc(S(C)(=O)=O)ccc2OC2CCCCCC2)c2cc[nH]c2c1=O [Example 220, 4-[2-(cycloheptyloxy)-5-(methylsulfonyl)phenyl]-6-methyl-1,6-dihydro-7H-pyrrolo[2,3-c]pyridin-7-one] |
| 0.83 nM | 1.9 nM | 6 min | 12 min | 11 min | 0.46 nM |  | Cn1cc(-c2cc(S(C)(=O)=O)ccc2OC2CCCCC2)c2cc[nH]c2c1=O [Example 215, 4-[2-(cyclohexyloxy)-5-(methylsulfonyl)phenyl]-6-methyl-1,6-dihydro-7H-pyrrolo[2,3-c]pyridin-7-one] |
| 12.2 nM | 240 nM | 7 min | 17 min | 7 min | 87.4 nM |  | Cn1cc(-c2cc(NS(=O)(=O)CCF)ccc2OC2CCOC2)c2cc[nH]c2c1=O (stereo not drawn) [Example 91, 2-fluoro-N-[3-(6-methyl-7-oxo-6,7-dihydro-1H-pyrrolo[2,3-c]pyridin-4-yl)-4-(tetrahydrofuran-3-yloxy)phenyl]ethanesulfonamide] |
| 4.6 nM | 36.8 nM | 105 min | > 120 min | 116 min | 3.6 nM |  | Cn1cc(-c2cc(S(N)(=O)=O)cnc2NCC2CC2)c2cc[nH]c2c1=O [Example 209, 6-[(cyclopropylmethyl)amino]-5-(6-methyl-7-oxo-6,7-dihydro-1H-pyrrolo[2,3-c]pyridin-4-yl)pyridine-3-sulfonamide] |

Further lines, the compound ahead of its results:

| SMILES | Ki [1] | EC50 [2] | half-life at 0.5 μM [3] | half-life at 0.5 μM [4] | half-life at 0.5 μM [5] | Ki [6] | Stability in rat liver microsomes (t1/2 in minutes) ([3]; […] microsomal protein) |
| --- | --- | --- | --- | --- | --- | --- | --- |
| Cn1cc(-c2cc(NS(C)(=O)=O)cnc2Oc2ccccc2)c2cc[nH]c2c1=O [Example 23, N-[5-(6-methyl-7-oxo-6,7-dihydro-1H-pyrrolo[2,3-c]pyridin-4-yl)-6-phenoxypyridin-3-yl]methanesulfonamide] | 1.2 nM | 45.9 nM | 11 min | 64 min | > 120 min | 0.75 nM |  |
| Cn1cc(-c2cc(S(C)(=O)=O)ccc2Oc2ccc(F)cc2F)c2cc(CN3CCOCC3)[nH]c2c1=O [Example 280, 4-[2-(2,4-difluorophenoxy)-5-(methylsulfonyl)phenyl]-6-methyl-2-(morpholin-4-ylmethyl)-1,6-dihydro-7H-pyrrolo[2,3-c]pyridin-7-one] | 19.2 nM | 292 nM | 84 min | 17 min | 36 min | 92 nM |  |
| CCS(=O)(=O)Nc1ccc(Oc2ccc(F)cc2F)c(-c2cn(C)c(=O)c3[nH]c(C(=O)N4CCN(C)CC4)cc23)c1 [Example 338, N-[4-(2,4-difluorophenoxy)-3-{6-methyl-2-[(4-methylpiperazin-1-yl)carbonyl]-7-oxo-6,7-dihydro-1H-pyrrolo[2,3-c]pyridin-4-yl}phenyl]ethanesulfonamide] | 0.86 nM | 77.9 nM | 29 min | 39 min | 20 min | 12.7 nM |  |
| Cn1cc(-c2cc(NS(C)(=O)=O)ccc2Oc2ccccc2)c2cc(C(=O)O)[nH]c2c1=O [Example 70, 6-methyl-4-{5-[(methylsulfonyl)amino]-2-phenoxyphenyl}-7-oxo-6,7-dihydro-1H-pyrrolo[2,3-c]pyridine-2-carboxylic acid] | 11.8 nM | > 3000 nM | 9 min | 41 min | 68 min | 46.8 nM |  |
| CCOC(=O)c1cc2c(-c3cc(N)ccc3Oc3ccccc3)cn(C)c(=O)c2[nH]1 [Example 69, ethyl 4-(5-amino-2-phenoxyphenyl)-6-methyl-7-oxo-6,7-dihydro-1H-pyrrolo[2,3-c]pyridine-2-carboxylate] | 39 nM | 140 nM | 2 min | 6 min | 3 min | 12.3 nM |  |
| CCNC(=O)c1cc2c(-c3cc(NS(C)(=O)=O)ccc3Oc3ccccc3)cn(C)c(=O)c2[nH]1 [Example 72, N-ethyl-6-methyl-4-{5-[(methylsulfonyl)amino]-2-phenoxyphenyl}-7-oxo-6,7-dihydro-1H-pyrrolo[2,3-c]pyridine-2-carboxamide] | 1.5 nM | 45.7 nM |  | 34 min | 70 min | 1.1 nM | 1 min |
| Cn1cc(-c2cc(-c3cccnc3)ccc2OCC2CC2)c2cc[nH]c2c1=O [Example 315, 4-[2-(cyclopropylmethoxy)-5-(pyridin-3-yl)phenyl]-6-methyl-1,6-dihydro-7H-pyrrolo[2,3-c]pyridin-7-one] | 37.6 nM | 160 nM | 4 min | 34 min | 11 min | 231 nM |  |
| Cn1cc(-c2cc(-c3ccc(N)nc3)ccc2OCC2CC2)c2cc[nH]c2c1=O [Example 326, 4-[5-(6-aminopyridin-3-yl)-2-(cyclopropylmethoxy)phenyl]-6-methyl-1,6-dihydro-7H-pyrrolo[2,3-c]pyridin-7-one] | 145 nM | 286 nM | 5 min | 112 min | 27 min | 272 nM |  |
| Cn1cc(-c2cc(-c3cccc(C#N)c3)ccc2OCC2CC2)c2cc[nH]c2c1=O [Example 353, 4′-(cyclopropylmethoxy)-3′-(6-methyl-7-oxo-6,7-dihydro-1H-pyrrolo[2,3-c]pyridin-4-yl)biphenyl-3-carbonitrile] | 158 nM | 786 nM | 8 min | 40 min | 10 min | 256 nM |  |
| CCS(=O)(=O)Nc1ccc(Oc2ccc(F)cc2F)c(-c2cn(C)c(=O)c3[nH]cc(C=O)c23)c1 [Example 349, N-[4-(2,4-difluorophenoxy)-3-(3-formyl-6-methyl-7-oxo-6,7-dihydro-1H-pyrrolo[2,3-c]pyridin-4-yl)phenyl]ethanesulfonamide] | 6.6 nM | 32.1 nM | 39 min | > 120 min | 36 min | 3.1 nM |  |
| Cn1cc(-c2cc(NS(=O)(=O)C3CC3)ccc2Oc2ccc(F)cc2F)c2cc[nH]c2c1=O [Example 235, N-[4-(2,4-difluorophenoxy)-3-(6-methyl-7-oxo-6,7-dihydro-1H-pyrrolo[2,3-c]pyridin-4-yl)phenyl]cyclopropanesulfonamide] | 17.4 nM | 66.5 nM | 49 min | 81 min | 22 min | 7 nM |  |
| Cn1cc(-c2ccc(OCC3CC3)c(-c3cn(C)c(=O)c4[nH]ccc34)c2)cn1 [Example 318, 4-[2-(cyclopropylmethoxy)-5-(1-methyl-1H-pyrazol-4-yl)phenyl]-6-methyl-1,6-dihydro-7H-pyrrolo[2,3-c]pyridin-7-one] | 346 nM | > 3000 nM | 24 min | 35 min | 13 min | 625 nM |  |
| Cn1cc(-c2cc(NS(C)(=O)=O)ccc2Oc2ccc(C#N)cc2)c2cc[nH]c2c1=O [Example 33, N-[4-(4-cyanophenoxy)-3-(6-methyl-7-oxo-6,7-dihydro-1H-pyrrolo[2,3-c]pyridin-4-yl)phenyl]methanesulfonamide] | 2.6 nM | 41.7 nM | > 120 min | > 120 min | 46 min | 4.8 nM |  |
